Patent publication US20110230407A1, “HEPATOCYTE GROWTH FACTOR PATHWAY ACTIVATORS IN DEMYELINATING DISEASES AND CENTRAL NERVOUS SYSTEM TRAUMA” (priority 2005, published 2011)

What was measured:
Format in all cases: cell-based
[1] = test system: Human neurons; experiment: Neuronal axon growth and cell density in human neurons; conditions: 48 hours, FIG. 5
Method: In this experiment, the ability of HGF/SF and mimetic to activate axonal growth was assessed. Human neurons (ATCC) were seeded in 6-well plates (1000 cell/well) in media containing 1% FBS. Cells were treated with HGF/SF (50 ng/ml) or mimetic (5 micromolar) for 48 hours. […] Cell shape, size, and density are clearly different in the presence of HGF/SF and mimetic compared with control. […] In one experiment, neurons were incubated with conditioned media from Schwann cells (FIG. 5, right field). […] Thus, secreted growth factors present in Schwann cell media are ineffective (or are at least effects are below the level of detection) as cell mitogens.

[2] = test system: oligodendrocytes; experiment: Myelin production by fluoromyelin staining, oligodendrocytes; conditions: HGF/SF 50 ng/ml, mimetic 5 μM, 4 hours
[3] = test system: NGF, BDNF, and NT-4; experiment: Expression of neurotrophic growth factors in Schwann cells, Western blot; conditions: Schwann cell protein extracts; FIG. 6
Text: HGF/SF- and HGF/SF mimetic-activated Schwann cells show increased expression of neurotrophic growth factors.

[4] = test system: Schwann cells; experiment: Schwann cell migration, Migration Chamber; conditions: 22 hours, quantified with Calcein; FIG. 7
Method: HGF/SF mimetic recapitulates HGF/SF activity in Schwann cells. To compare the direct effects of HGF/SF mimetic and HGF/SF on cell migration, an in vitro migration assay was employed using a Migration Chamber (BD Biosciences). 50,000 cells were seeded in the inner chamber for 22 hours in the presence of 0.4% or 10% FBS, HGF/SF, or mimetic. Cell number was quantified with […] Calcein using a fluorescence plate reader.

[5] = test system: Schwann cells; experiment: H2O2-induced apoptosis of Schwann cells (Apo-ONE Assay kit); conditions: 0.5 mM H2O2 for 2 hours; HGF 50 ng/ml, mimetic 10 micromolar; FIG. 1
Method: HGF and small molecule HGF/SF mimetic protect Schwann cells against H2O2-induced apoptosis. Schwann cells were seeded in 96 well plates at a density of 5000 cells/well, overnight in serum-free media. Cells were treated with 0.5 mM H2O2 for 2 hours in the presence of vehicle (Veh), HGF (50 ng/ml) or HGF/SF mimetic (10 micromolar). Cells were assayed for apoptosis using the Apo-ONE Assay kit (Promega).

[6] = test system: fibroblasts lacking the Met receptor; experiment: Mitogenesis in fibroblasts lacking the Met receptor
Method: To determine whether mimetic-mediated Met phosphorylation induces similar intracellular signaling cascades as HGF/SF, and to assess whether these signaling events convey biologic activity, experiments were carried out using an Akt inhibitor and the phosphoinositide3-kinase inhibitor Wortmannin.

[7] = test system: smooth muscle cells; experiment: Mitogenesis in smooth muscle cells lacking the Met receptor
[8] = test system: mouse primary oligodendrocytes; experiment: Oligodendrocyte proliferation, WST1 reagent; conditions: treated 16-24 hours, serum-free; FIGS. 3C and 3D
Text: (§1) Small molecule HGF/SF agonist mimics HGF/SF's pro-proliferative effects. Oligodendrocytes and Schwann cells are both cells that support neuronal function by ensheathing neuronal axons with myelin. An individual supporting cell comprises a single segment of an axon's myelin sheath and is active in facilitating axonal growth. An important aspect of HGF/SF activity is this growth factor's ability to induce oligodendrocyte and Schwann cell proliferation. In order to evaluate small molecule HGF/SF mimetics for potential HGF/SF-like bioactivity, rat RSC96 Schwann cells (ATCC, Manassas, Va.) or mouse primary oligodendrocytes (Celprogen, San Pedro, Calif.) were seeded in 96-well plates at 5000 cells/well in serum-free medium for 16 hours. Cells were treated with test compound or HGF/SF (positive control) for 16-24 hours. [^3H]-thymidine was added to the medium with Schwann cells, WST1 cell proliferation reagent (Roche, Indianapolis, Ind.) was added to oligodendrocytes, and incubation was continued for another 4-5 hours. Schwann cells were washed with PBS and harvested. [^3H]-thymidine incorporation was determined and used as a measure of proliferation (increased DNA synthesis). Cells with WST1 reagent were read using a plate reader at an OD of 490 nm.

[9] = test system: rat RSC96 Schwann cells; experiment: Schwann cell proliferation, [3H]-thymidine incorporation; conditions: treated 16-24 hours, serum-free; FIGS. 3A and 3B
Text: as §1

[10] = test system: Schwann cells; experiment: Myelin production by fluoromyelin staining, Schwann cells; conditions: 4 hours
Method: HGF/SF and small molecule HGF/SF mimetic increase myelin production in Schwann cells. It is well-known that the primary function of oligodendrocytes and Schwann cells is myelin production. […] Cells were seeded in 3 well chamber slides at a density of 50,000 cells/well in serum free media for 24 hours. Then HGF/SF (50 ng/ml) or a small molecule HGF/SF mimetic (5 μM) were added to the same medium and cells incubated for an additional 4 hours. Cells were washed, and fluoromyelin (Molecular Probes) was added to each well (30 min exposure at room temperature), and cells observed under a confocal microscope (Olympus). […] To obtain semi-quantitative measurements of this increase in the fluoromyelin signal, a second experiment was performed. Schwann cells were seeded in 6 well plates at a density of 4×10^5 cells/well and treated with HGF (50 ng/ml) or mimetic (5 uM) for 4 hours. Fluoromyelin staining was performed as described above and relative fluorescence was measured using a fluorescence plate reader.

**Q.** Which “neuronal cell proliferation / cell density” value [1] does the source give for “HGF/SF: Scatter factor / hepatocyte growth factor, pleiotropic growth factor, heparin binding heterodimeric protein signalling through Met” here?
**A.** activate neuronal cell proliferation

**Q.** What about the neuronal axon growth ([1]; HGF/SF 50 ng/ml, mimetic 5 micromolar, 1% FBS) of the same substance?
**A.** activate neuronal axon growth

**Q.** And the “myelin production in oligodendrocytes” value [2]?
**A.** induce myelin production

**Q.** What about the “expression of NGF, BDNF, and NT-4 cytokines” value [3] of the same substance?
**A.** over-express

**Q.** What about the Schwann cell migration [4] of the same substance?
**A.** similarly increase Schwann cell migration

**Q.** And the “cell viability after H2O2” value [5]?
**A.** substantial improvement in cell viability

**Q.** And the “mitogenesis in fibroblasts lacking the Met receptor” value [6]?
**A.** neither the mimetic nor HGF/SF activated mitogenesis

**Q.** And the “mitogenesis in smooth muscle cells, which also lack the Met receptor” value [7]?
**A.** A similar result was obtained

**Q.** And the “oligodendrocyte proliferation (WST1, OD 490 nm)” value [8]?
**A.** activate

**Q.** And the “Schwann cell proliferation ([3H]-thymidine incorporation)” value [9]?
**A.** activate

**Q.** And the “increase in the fluoromyelin signal, relative fluorescence by plate reader” value ([10]; HGF 50 ng/ml, mimetic 5 uM, FIG. 2B)?
**A.** 3 fold

**Q.** And the “fluoromyelin signal, confocal microscope” value ([10]; HGF/SF 50 ng/ml, mimetic 5 μM, FIG. 2A)?
**A.** intense increase
